{
  "source": "patent US11649195B2",
  "about": "“Smart release nitrogen-containing fertilizer granules” (RYNAN TECHNOLOGIES PTE. LTD., priority 2018, dated 2023)",
  "key": {"[1]": {"conditions": "of associated acids; cited from earlier work"}, "[2]": {"tested_on": "Brassica integrifolia", "experiment": "Growing Brassica integrifolia in planting pots", "format": "in vivo", "conditions": "day 31 after planting, 10 g fertilizer per pot", "method": "Fertilizers comprising different functional layers were used for growing Brassica integrifolia. The experiments were done in plastic planting pots containing 5 Kg of a growth media comprising 50% coconut fibers and 50% topsoil. The N, P2O5 and K2O contents in 100 g of the growth media were 7.7 mg, 32 mg and 34 mg, respectively. Ten grams of urea were buried in the growth media at around 3 cm depth as a comparative example (Example 41). Alternatively, 10 grams of various smart N-fertilizers comprising different organic functional layer 104 were buried into the growth media at around 3 cm depth (Examples 42 and following). Then, ten seeds of Brassica integrifolia (also called English spinach) were placed in each planting pot. The planting pots were placed outdoor and wetted with 200 ml water every day.\nSmart N-Fertilizers with different organic functional layer comprising tannic acid and its modifiers were used for growing Brassica integrifolia. These experiments were carried out as described above for Examples 42 to 48.\nSmart N-Fertilizers with different organic functional layer were used for growing Brassica integrifolia. These experiments were carried out as described above for Examples 42 to 48, with the exception of Example 55 (comparative), in which ten grams of DAP were buried in the growth media at around 3 cm depth as a comparative example."}, "[3]": {"conditions": "Examples 41, 49-54 (tannic acid layers)"}},
  "data": [
    {"smiles": "O=C(O)Cc1cccc2ccccc12", "note": "[1-Naphthalene acetoate, 1-Naphthalene Acetic Acid]", "values": [
      {"measurement": "pKa", "setting": "[1]", "value": 4.23}
    ]},
    {"smiles": "O=C(O)COc1ccc(Cl)cc1", "note": "[4-Chlorophenyloxy acetoate, 4-Chlorophenoxyacetic Acid]", "values": [
      {"measurement": "pKa", "setting": "[1]", "value": 3.58}
    ]},
    {"smiles": "N.N.O=P(O)(O)O", "note": "[DAP, Diammonium phosphate]", "values": [
      {"measurement": "Height", "setting": "[2]; Examples 55-64 (DAP core)", "value": 7.60, "unit": "cm"},
      {"measurement": "Leaf length", "setting": "[2]; Examples 55-64 (DAP core)", "value": 4.20, "unit": "cm"},
      {"measurement": "Leaf width", "setting": "[2]; Examples 55-64 (DAP core)", "value": 2.40, "unit": "cm"},
      {"measurement": "Total yield", "setting": "[2]; Examples 55-64 (DAP core)", "value": 15, "unit": "gram"},
      {"measurement": "Weight of 6 plants", "setting": "[2]; Examples 55-64 (DAP core)", "value": 9, "unit": "gram"}
    ]},
    {"smiles": "NC(N)=O", "note": "[Urea, urea]", "values": [
      {"measurement": "Height", "setting": "[2]; [3]", "value": 4.90, "unit": "cm"},
      {"measurement": "Leaf length", "setting": "[2]; [3]", "value": 2.00, "unit": "cm"},
      {"measurement": "Leaf width", "setting": "[2]; [3]", "value": 1.00, "unit": "cm"},
      {"measurement": "Total yield", "setting": "[2]; [3]", "value": 5, "unit": "gram"},
      {"measurement": "Weight of 6 plants", "setting": "[2]; [3]", "value": 5, "unit": "gram"},
      {"measurement": "Height", "setting": "[2]; Examples 41-48", "value": 4.90, "unit": "cm"},
      {"measurement": "Leaf length", "setting": "[2]; Examples 41-48", "value": 2.00, "unit": "cm"},
      {"measurement": "Leaf width", "setting": "[2]; Examples 41-48", "value": 1.00, "unit": "cm"},
      {"measurement": "Total yield", "setting": "[2]; Examples 41-48", "value": 5, "unit": "gram"},
      {"measurement": "Weight of 6 plants", "setting": "[2]; Examples 41-48", "value": 5, "unit": "gram"}
    ]}
  ]
}
